Values quoted from earlier work, collected in patent US20040210280A1, “Plaster-type chip systems for thermodynamic control of topical dermal and transdermal systems” (BIONICS PHARMA GmbH, priority 2002, published 2004).

Assays:
[1] = in vivo
[2] = in vivo; remark: listed apart in the source

Molecule	concentrations of nitroglycerine in the plasma [1]	plasma concentrations of nitroglycerine [1]	rate of disappearance from the subcutaneous tissue [2]
O=[N+]([O-])OCC(CO[N+](=O)[O-])O[N+](=O)[O-] [nitroglycerine]	increased by two to three times	decrease	
125I-labelled insulin: previously injected 125I-labelled insulin			increased rate of disappearance
